Measurements: US20230219898A1, “COMPOUNDS AND METHODS FOR BLOCKING APOPTOSIS AND INDUCING AUTOPHAGY” (President and Fellows of Harvard College, priority 2020, published 2023)

Legend:
[1] = system: panel of 97 kinases; assay: KINOMEscan profiling; assay type: binding; conditions: 10 μM
Method: FIG. 5d depicts the KINOMEscan profiling of Apt-1 (10 μM) against a panel of 97 kinases. Binding interactions reported as % Ctrl, where lower numbers indicate stronger hits. Negative control=DMSO (100% Ctrl); positive control=control compound (0% Ctrl); 0<% Ctrl <0.1 Very Strong; 0.1≤% Ctrl <1 Strong; 1≤% Ctrl <10 Medium; […] Weak; % Ctrl ≥35 No effects. No significant binding of Apt-1 to this panel of 97 kinases was detected. CellTiter-Glo was used to determine cell survival in (a), (b), and (c).
KINOMEscan profiling was used to assess the interaction of Apt-1 with a panel of 97 kinases as a custom service (DiscoverX/Eurofins, San Diego, Calif. USA). Briefly, DNA-tagged recombinant kinases were produced in E. coli. The assay plates with kinases were incubated at room temperature with shaking for 1 h and the affinity beads were washed with wash buffer (1×PBS, 0.05% Tween 20). The beads were then re-suspended in elution buffer. The kinase concentration in the eluates was measured by qPCR. Apt-1 were screened at […], and the results for primary screen binding interactions are reported as % Ctrl, where lower numbers indicate stronger hits in the matrix.

[2] = Pharmacokinetic (DMPK) study of Apt-1, intracerebroventricular micro-osmotic pump; assay type: in vivo, mice; conditions: mouse, hippocampus, ICV pump 20 mM Apt-1, 0.25 μl/h
Method: Apt-1 was delivered using intracerebroventricular Alzet micro-osmotic pump (20 mM Apt-1, […], release rate: […]). CSF was collected at 1 h, 6 h, and 24 h. Hippocampi were collected at 24 h. The concentrations of Apt-1 were measured by HPLC. The concentration of Apt-1 in hippocampus at 24 h was 6.27 μM. Mean ±s.e.m. (n=3 mice in each group).
WT mice (2 months old) were deeply anesthetized with isoflurane and immobilized in a stereotaxic frame using predetermined coordinates under aseptic conditions. All animals were observed during and after surgery, and an analgesic was administered after surgery. Apt-1 (20 mM, 100 μl, release rate: 0.25 μl/h) was delivered intracerebroventricularly via an ALZET micro-osmotic pump (ALZET Model 1002) and ALZET brain infusion kits into lateral ventricles (ML, −1.0 mm; AP, −0.5 mm; DV, 2.0 mm). The ALZET micro-osmotic pumps were fixed on the skulls of the mice by instant adhesive and the skin incision was closed by suture. At 1 h, 6 h and 24 h after the onset of delivery, cerebrospinal fluid (CSF) was carefully withdrawn by a Hamilton syringe from lateral ventricles (ML, −1.0 mm; AP, −0.5 mm; DV, 2.0 mm) for DMPK analysis. The mice were sacrificed at 24 h and the hippocampi were dissected for DMPK analysis. […] The concentrations of Apt-1 in collected samples were measured by HPLC as a custom service by the Scripps Research Institute Florida.

[3] = target: T1, TRADD-N and TRAF2-C (Homo sapiens, UniProt Q15628); assay: Cell-free FRET assay TRADD-N / TRAF2-C; assay type: biochemical; conditions: incubated 1 h
T1 construct: expression constructs encoding Flag-TRADD-N(1-179) and HA-TRADD-C(180-312); expressed in transfected cells; host or cells: HEK293T
Method: When FRET occurs, the acceptor mVenus-TRADDN-Flag (mV-TRADDN) emission will increase and the donor emission will decrease. Apt-1 was added to the system with indicated concentration and incubated for 1 h, then subjected to FRET assay.
mVenus- and Flag-tagged TRADD-N(mVenus-TRADDN-Flag) and mCerulean- and Flag-tagged TRAF2C (Flag-TRAF2C-mCerulean) was expressed in HEK293T cells for 48 h. Then cells were lysed in NP-40 buffer followed by immunoprecipitation using anti-Flag affinity gel. The proteins were eluted by 5 mg/ml 3×Flag peptide and exchanged into assay buffer (120 mM NaCl, 20 mM NaH2PO4/Na2HPO4, pH 7.4) by dialysis for FRET assay. The proteins were added into Coming black 96-well microtiter plates in triplicates at a final concentration of 1 μM. Apt-1 was incubated with the proteins for 1 h before measurement. Measurements were performed on a fluorescent plate reader (Victor3, 1420 Multilabel counter, Perkin Elmer). The following filter set was used: mCerulean filter set (excitation: 430/15 nm, emission: 460/20 nm); mVenus filter set (excitation: 485/15, emission 535/15); FRET filter set (430/15 nm, emission 450-600 nm).

[4] = system: PS19 mice injected with tau pffs; assay: Tau pff transmission model in PS19 mice, Apt-1 delivered intracerebroventricularly

T1 sequence (Q15628 1-179): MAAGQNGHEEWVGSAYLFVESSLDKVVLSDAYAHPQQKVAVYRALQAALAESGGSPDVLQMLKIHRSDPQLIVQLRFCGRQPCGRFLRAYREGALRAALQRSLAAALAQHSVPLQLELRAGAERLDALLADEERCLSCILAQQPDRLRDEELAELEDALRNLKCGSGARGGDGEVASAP

Compound: CN1CCN=C1SC(C(=O)NC1CCCCCC1)c1ccccc1 (centres unmarked) [Compound 30]
- off-target effects on 97 kinase targets [1]: no significant off-target effects
- concentration at 24 h [2]: 6.27 µM
- binding of TRADD-N to TRAF2-C (FRET) [3]: dose-dependently reduced
- survival or behavior of the mice ([4]; 20 mM Apt-1 ICV pump, one month or one week): no apparent difference in survival or behavior
- accumulation of tangle-like tau aggregates, delayed dosing ([4]; Apt-1 for 1 week, 3 weeks after pffs): effectively reduce the accumulation of tangle-like tau aggregates
- autophagy and levels of tau in hippocampus ([4]; FIG. 3a): induce autophagy and reduce the levels of tau
- neurofibrillary tangle-like pathogenesis induced by pffs (AT8, MC1) ([4]; FIG. 3b, 3c): reduced neurofibrillary tangle-like pathogenesis
- activated pRIPK1+ and apoptotic TUNEL+ cells in CA1 hippocampus ([4]; FIG. 3d, 3e): inhibited
